# Results as given in patent publication US12331040B2 (Karyopharm Therapeutics Inc., priority 2013, dated 2025).
# pIC50: −log10 of the molar value.
# What was measured:
# Test in all cases: MTT cell proliferation assay
# Type in all cases: cell-based
# Z138 cells = details: Homo sapiens, Z-138, Z138 cells; approximately 64-72 hours incubation; read-out: MTT Assay IC50 Z-138
# Procedure: (§1) The MTT cell proliferation assay was used to study the cytotoxic properties of the compounds. The assay was performed according to the method described by Roche Molecular Biochemicals, with minor modifications. The assay is based on the cleavage of the tetrazolium salt, MTT, in the presence of an electron-coupling reagent. The water-insoluble formazan salt produced must be solubilized in an additional step. Cells grown in a 96-well tissue culture plate were incubated with the MTT solution for approximately 4 hours. After this incubation period, a water-insoluble formazan dye formed. After solubilization, the formazan dye was quantitated using a scanning multi-well spectrophotometer (ELISA reader). […] The cells were seeded at 5,000-10,000 cells in each well of 96-well plate in 100 μL of fresh culture medium and were allowed to attach overnight. The stock solutions of the compounds were diluted in 100 μL cell culture medium to obtain eight concentrations of each test compound, ranging from 1 nM to 30 μM. […] All optical densities were measured at 490 nm using a Vmax Kinetic Microplate Reader (Molecular Devices). In most cases, the assay was performed in duplicate and the results were presented as a mean percent inhibition to the negative control±SE. The following formula was used to calculate the percent of inhibition: Inhibition (%)=(1−(ODo/OD))×100.
# (§2) The compounds were tested against MS751, Z138 and 3T3 cells. The MS751 cell line is derived from a metastasis to lymph node of human cervix from a patient diagnosed with squamous cell carcinoma of the cervix. The Z138 cell line is a mature B-cell acute lymphoblastic leukemia cell line derived from a patient with chronic lymphocytic leukemia. 3T3 cells are standard fibroblast cells; they were originally isolated from Swiss mouse embryo tissue.
# 3T3 cells = details: Mus musculus, NIH3T3, approximately 64-72 hours incubation, read-out: MTT Assay IC50 3T3
# Procedure: as §1, §2
# MS751 cells = details: Homo sapiens, MS751, MS751 cells; approximately 64-72 hours incubation; read-out: MTT Assay IC50 MS-751
# Procedure: as §1, §2
Compound,pIC50 (Z138 cells),pIC50 (3T3 cells),pIC50 (MS751 cells)
"Nc1ccc(/C=C/C(=O)NCc2cc3cc(-c4cnc(C(=O)N5CCOCC5)nc4)cc(Cl)c3o2)cn1 [Compound 546, (E)-3-(6-Aminopyridin-3-yl)-N-((7-chloro-5-(2-(morpholine-4-carbonyl)pyrimidin-5-yl)benzofuran-2-yl)methyl)acrylamide]",5.30 to 7.00,< 5.00,5.30 to 7.00
"Nc1ccc(/C=C/C(=O)NCc2cc3cc(-c4cc(F)c(C(=O)N5CCOCC5)cc4F)cc(Cl)c3o2)cn1 [Compound 547, (E)-3-(6-aminopyridin-3-yl)-N-((7-chloro-5-(2,5-difluoro-4-(morpholine-4-carbonyl)phenyl)benzofuran-2-yl)methyl)acrylamide]",5.30 to 7.00,< 5.00,5.30 to 7.00
"Nc1ccc(/C=C/C(=O)NCc2cc3cc(-c4ccc(C(=O)N5CCOCC5)c(F)c4F)cc(Cl)c3o2)cn1 [Compound 548, (E)-3-(6-aminopyridin-3-yl)-N-((7-chloro-5-(2,3-difluoro-4-(morpholine-4-carbonyl)phenyl)benzofuran-2-yl)methyl)acrylamide]",5.30 to 7.00,< 5.00,5.30 to 7.00
"Nc1ccc(/C=C/C(=O)NCc2cc3cc(-c4ccc(C(=O)N5CCOCC5)c(F)c4)cc(Cl)c3o2)cn1 [Compound 549, (E)-3-(6-aminopyridin-3-yl)-N-((7-chloro-5-(3-fluoro-4-(morpholine-4-carbonyl)phenyl)benzofuran-2-yl)methyl)acrylamide]",5.30 to 7.00,< 5.00,5.30 to 7.00
"Nc1ccc(/C=C/C(=O)NCc2cc3cc(-c4ccc(C(=O)N5CCOCC5)cc4)cc(Cl)c3o2)cc1 [Compound 550, (E)-3-(4-Aminophenyl)-N-((7-chloro-5-(4-(morpholine-4-carbonyl)phenyl)benzofuran-2-yl)methyl)acrylamide]",< 5.00,< 5.00,< 5.00
"CN(C)c1ccc(/C=C/C(=O)NCc2cc3cc(-c4ccc(C(=O)N5CCOCC5)cc4)cc(Cl)c3o2)cn1 [Compound 551, (E)-N-((7-Chloro-5-(4-(morpholine-4-carbonyl)phenyl)benzofuran-2-yl)methyl)-3-(6-(dimethylamino)pyridin-3-yl)acrylamide]",< 5.00,< 5.00,< 5.00
"Nc1ccc(/C=C/C(=O)NCc2cc3cc(-c4ccc(C(=O)N5CCOCC5)nn4)cc(Cl)c3o2)cn1 [Compound 552, (E)-3-(6-aminopyridin-3-yl)-N-((7-chloro-5-(6-(morpholine-4-carbonyl)pyridazin-3-yl)benzofuran-2-yl)methyl)acrylamide]",5.30 to 7.00,< 5.00,5.30 to 7.00
"Nc1ccc(/C=C/C(=O)NCc2cc3cc(-c4ccc(CC(=O)N5CCOCC5)cc4)cc(Cl)c3o2)cn1 [Compound 553, (E)-3-(6-Aminopyridin-3-yl)-N-((7-chloro-5-(4-(2-morpholino-2-oxoethyl)phenyl)benzofuran-2-yl)methyl)acrylamide]",5.30 to 7.00,< 5.00,5.30 to 7.00
"COc1ccc(-c2ccc(S(=O)(=O)N3CCOCC3)cc2)c2cc(CNC(=O)/C=C/c3ccc(N)nc3)oc12 [Compound 554, (E)-3-(6-aminopyridin-3-yl)-N-((7-methoxy-4-(4-(morpholinosulfonyl)phenyl)benzofuran-2-yl)methyl)acrylamide]",> 7.00,< 5.00,5.30 to 7.00
"CC1(C)CN(S(=O)(=O)c2ccc(-c3cc(Cl)c4oc(CNC(=O)/C=C/c5ccc(N)nc5)cc4c3)cc2)C1 [Compound 555, (E)-3-(6-aminopyridin-3-yl)-N-((7-chloro-5-(4-(3,3-dimethylazetidin-1-ylsulfonyl)phenyl)benzofuran-2-yl)methyl)acrylamide]",5.30 to 7.00,< 5.00,5.30 to 7.00
"Nc1ccc(/C=C/C(=O)NCc2cc3cc(-c4ccc(OC(=O)N5CCOCC5)cc4)cc(Cl)c3o2)cn1 [Compound 556, (E)-4-(2-((3-(6-aminopyridin-3-yl)acrylamido)methyl)-7-chlorobenzofuran-5-yl)phenyl morpholine-4-carboxylate]",5.30 to 7.00,< 5.00,5.30 to 7.00
"Nc1ccc(/C=C/C(=O)NCc2cc3cc(-c4ccc(C(=O)N5CCOCC5)cc4)cc(C(F)F)c3o2)cn1 [Compound 557, (E)-3-(6-aminopyridin-3-yl)-N-((7-(difluoromethyl)-5-(4-(morpholine-4-carbonyl)phenyl)benzofuran-2-yl)methyl)acrylamide]",5.30 to 7.00,< 5.00,5.30 to 7.00
"Nc1ccc(/C=C/C(=O)NCc2cc3cc(-c4cccc(OC(=O)N5CCOCC5)c4)cc(C(F)(F)F)c3o2)cn1 [Compound 558, (E)-3-(2-((3-(6-aminopyridin-3-yl)acrylamido)methyl)-7-(trifluoromethyl)benzofuran-5-yl)phenyl morpholine-4-carboxylate]",< 5.00,< 5.00,< 5.00
"Nc1ccc(/C=C/C(=O)NCc2cc3cccc(-c4ccc(C(=O)N5CCOCC5)cc4)c3o2)cn1 [Compound 559, (E)-3-(6-aminopyridin-3-yl)-N-((7-(4-(morpholine-4-carbonyl)phenyl)benzofuran-2-yl)methyl)acrylamide]",> 7.00,5.30 to 7.00,> 7.00
"Nc1ccc(/C=C/C(=O)NCc2cc3cc(-c4ccc(C(=O)N5CCOCC5)cn4)cc(Cl)c3o2)cn1 [Compound 560, (E)-3-(6-aminopyridin-3-yl)-N-((7-chloro-5-(5-(morpholine-4-carbonyl)pyridin-2-yl)benzofuran-2-yl)methyl)acrylamide]",5.30 to 7.00,< 5.00,5.30 to 7.00
"CN1CCN(C(=O)c2ccc(-c3cc(C(F)(F)F)c4oc(CNC(=O)/C=C/c5ccc(N)nc5)cc4c3)cc2)CC1 [Compound 561, (E)-3-(6-aminopyridin-3-yl)-N-((5-(4-(4-methylpiperazine-1-carbonyl)phenyl)-7-(trifluoromethyl)benzofuran-2-yl)methyl)acrylamide]",> 7.00,5.00 to 5.30,> 7.00
"Nc1ccc(/C=C/C(=O)NCc2cc3cc(-c4ccc(F)c(C(=O)N5CCOCC5)c4)cc(Cl)c3o2)cn1 [Compound 562, (E)-3-(6-aminopyridin-3-yl)-N-((7-chloro-5-(4-fluoro-3-(morpholine-4-carbonyl)phenyl)benzofuran-2-yl)methyl)acrylamide]",> 7.00,< 5.00,> 7.00
"Nc1ccc(/C=C/C(=O)NCc2cc3cc(-c4ccc(F)c(C(=O)N5CCOCC5)c4)cc(C(F)(F)F)c3o2)cn1 [Compound 563, (E)-3-(6-aminopyridin-3-yl)-N-((5-(4-fluoro-3-(morpholine-4-carbonyl)phenyl)-7-(trifluoromethyl)benzofuran-2-yl)methyl)acrylamide]",> 7.00,< 5.00,5.30 to 7.00
"Nc1ccc(/C=C/C(=O)NCc2cc3cc(-c4ccc(C(=O)N5CCNCC5)cc4)cc(C(F)(F)F)c3o2)cn1 [Compound 564, (E)-3-(6-aminopyridin-3-yl)-N-((5-(4-(piperazine-1-carbonyl)phenyl)-7-(trifluoromethyl)benzofuran-2-yl)methyl)acrylamide]",> 7.00,< 5.00,> 7.00
"CN1CCN(C(=O)c2ccc(-c3cc(C(F)(F)F)c4oc(CNC(=O)/C=C/c5ccc(N)nc5)cc4c3)nc2)CC1 [Compound 565, (E)-3-(6-aminopyridin-3-yl)-N-((5-(5-(4-methylpiperazine-1-carbonyl)pyridin-2-yl)-7-(trifluoromethyl)benzofuran-2-yl)methyl)acrylamide]",> 7.00,5.30 to 7.00,> 7.00
"Nc1ccc(/C=C/C(=O)NCc2cc3cc(-c4ccc(C(=O)N5CCC(F)(F)CC5)cc4)cc(C(F)(F)F)c3o2)cn1 [Compound 566, (E)-3-(6-aminopyridin-3-yl)-N-((5-(4-(4,4-difluoropiperidine-1-carbonyl)phenyl)-7-(trifluoromethyl)benzofuran-2-yl)methyl)acrylamide]",5.30 to 7.00,< 5.00,5.30 to 7.00
"Nc1ccc(/C=C/C(=O)NCc2cc3cc(-c4ccc(C(=O)N5CCC(F)CC5)cc4)cc(C(F)(F)F)c3o2)cn1 [Compound 567, (E)-3-(6-aminopyridin-3-yl)-N-((5-(4-(4-fluoropiperidine-1-carbonyl)phenyl)-7-(trifluoromethyl)benzofuran-2-yl)methyl)acrylamide]",5.30 to 7.00,< 5.00,5.30 to 7.00
"Nc1ccc(/C=C/C(=O)NCc2cc3cc(-c4ccc(C(=O)N5CCOCC5)cn4)cc(-c4ccc(F)cc4)c3o2)cn1 [Compound 568, (E)-3-(6-aminopyridin-3-yl)-N-((7-(4-fluorophenyl)-5-(5-(morpholine-4-carbonyl)pyridin-2-yl)benzofuran-2-yl)methyl)acrylamide]",> 7.00,5.30 to 7.00,> 7.00
